{"source": "patent EP3521435A1", "about": "“A HIGH STRINGENCY SELECTION SYSTEM FOR PROTEIN EXPRESSION IN PROLINE-AUXOTROPHIC CELLS” (Bayer AG, priority 2018, dated 2019)", "system": "CHO-K1 cells", "test": "Batch fermentation in shake flasks of human IgG1 expressing stable cell populations (Poros A-HPLC titer, viable cell density, viability)", "format": "cell-based, Chinese hamster", "settings": "pJF1576", "method": "To efficiently test the impact of different procedures on improving selection stringency, experimental testing in stable cell populations was performed. As test molecules, enhanced green fluorescent protein (GFP) as well as a human IgG1 were chosen. CHO-K1 cells adapted to growth in suspension in defined medium were obtained from SAFC and cultivated in EX-CELL CD CHO Fusion medium (SAFC 14365C). Custom-made EX-CELL CD CHO Fusion medium without L-Proline (Pro) and without L-Ornithine (Orn) (\"proline-free medium\") was obtained from SAFC. The expression vector system was based on modified versions of \"CET 1019 AS-puro-SceI\" and \"CET 1019 AD-puro-SceI\" for GFP and human IgG1, respectively, from Merck-Millipore, containing the Puromycin selection marker (Puromycin N-acetyl-transferase) known to exert a high selection stringency. To minimize variations in cell populations derived from using different transfections or different vectors, the first series of experiments were conducted using vectors into which a P5CS expression cassette was cloned upstream of a UCOE element, in addition to the Puromycin selection marker present downstream of a gene of interest. This way, it was possible to pool different transfections using the same vector to obtain a common starting point, and split the mixture according to different selection conditions, minimizing any variations that are not due to selection conditions themselves. Expression of long and short isoform of murine P5CS (Protein: Delta-1-pyrroline-5-carboxylate synthase; Gene: Aldh18a1; UniProtKB accession number: Q9Z110-1 & Q9Z110-2) was driven by a SV40 promoter. A SV40 polyadenylation sequence was used at the 3' end of the gene. More details can be found in Table 1. Typically, CHO cells were cultivated in EX-CELL CD CHO Fusion medium containing 6 mM GlutaMAX (Thermo Fisher, 35050-38) (\"CD-Fusion medium\") at 37 °C with 5% CO2. Cells were grown to logarithmic phase under shaking conditions for transfections. 1e7 cells/cuvette were transfected using nucleofection (Amaxa Nucleofector II, following the manufacturer's recommendations) with 5 µg of linearized DNA. After transfection, cells were taken up in 1 ml medium and transferred into 1 well of a 6 well microtiter plate (MTP) already containing 1 ml medium. The cells were incubated for 24 h without shaking, after which 9 ml medium were added and cells were washed (either in standard or proline-free medium). Multiple transfections were pooled, if applicable. Cells were adjusted to 2e5 viable cells/ml and 10 ml were transferred to T-25 flasks. Reference cell populations were selected using 10 µg/ml Puromycin in CD-Fusion medium. For P5CS-based selection, EX-CELL CD CHO Fusion medium (custom-made, SAFC) containing 6 mM GlutaMAX without proline and without ornithine was used (\"proline-free\" or \"CD-Fusion w/o Pro\" medium), with or without additional selection pressure.\nCell viability of the different populations was monitored over time. As soon as cell populations appeared to recover from selection pressure, cells were transferred to Shake Flask or TubeSpins for expansion in suspension under shaking conditions. Subsequently, stable cell populations transfected with IgG were seeded at 2e5 viable cells/ml for batch fermentation without selection pressure (i.e. standard CD-Fusion medium containing proline and no other selective agents). The cells were cultivated for 5-10 days, viable cell densities and productivity were monitored over time. IgG titers were determined using Poros A-HPLC method. Typically, final batch titers were recorded at a time point at which majority of cultures had around 70% viability. Stable cell populations transfected with GFP vector were subjected to analysis by flow cytometry using Guava easyCyte 8HT Benchtop Flow Cytometer (Millipore). 250 µl of cell culture were transferred to 96 MTP and washed with PBS. Dead cells were excluded from analysis using propidium iodide (PI). […]", "key": {"[1]": {"settings": "Day 2 after inoculation, selected in CD-Fusion w/o Pro + 0.05 mM DHP, non-selecting conditions"}, "[2]": {"settings": "Day 2 after inoculation, selected in CD-Fusion w/o Pro + 0.1 mM DHP, non-selecting conditions"}, "[3]": {"settings": "Day 2 after inoculation, selected in CD-Fusion w/o Pro + 0.2 mM DHP, non-selecting conditions"}, "[4]": {"settings": "Day 2 after inoculation, selected in CD-Fusion w/o Pro + 0.4 mM DHP, non-selecting conditions"}, "[5]": {"settings": "Day 3 after inoculation, selected in CD-Fusion w/o Pro + 0.05 mM DHP, selective conditions"}, "[6]": {"settings": "Day 3 after inoculation, selected in CD-Fusion w/o Pro + 0.1 mM DHP, selective conditions"}, "[7]": {"settings": "Day 3 after inoculation, selected in CD-Fusion w/o Pro + 0.2 mM DHP, selective conditions"}, "[8]": {"settings": "Day 3 after inoculation, selected in CD-Fusion w/o Pro + 0.4 mM DHP, selective conditions"}, "[9]": {"settings": "Day 4 after inoculation, selected in CD-Fusion w/o Pro + 0.05 mM DHP, non-selecting conditions"}, "[10]": {"settings": "Day 4 after inoculation, selected in CD-Fusion w/o Pro + 0.1 mM DHP, non-selecting conditions"}}}
{"compound": "O=C(O)[C@@H]1C=CCN1", "note": "[DHP, 3,4-Dehydro-L-Proline]", "values": [{"measurement": "titer improvements", "setting": "0.2 mM or 0.4 mM DHP as additional selection additives, human IgG1, non-selecting batch, #1 - #3 vs #6 & #7", "result": "2-3 fold"}, {"measurement": "titer improvements as compared to Puromycin-based selections", "setting": "DHP as additional selection agent in initial selections, human IgG1, batch under selective conditions", "result": "2-3 fold"}, {"measurement": "Viability profile", "setting": "Day 0 after inoculation, selected in CD-Fusion w/o Pro + 0.05 mM DHP, non-selecting conditions", "result": 99.4, "unit": "%"}, {"measurement": "Viability profile", "setting": "Day 0 after inoculation, selected in CD-Fusion w/o Pro + 0.05 mM DHP, selective conditions", "result": 98.4, "unit": "%"}, {"measurement": "Viability profile", "setting": "Day 0 after inoculation, selected in CD-Fusion w/o Pro + 0.1 mM DHP, non-selecting conditions", "result": 99.0, "unit": "%"}, {"measurement": "Viability profile", "setting": "Day 0 after inoculation, selected in CD-Fusion w/o Pro + 0.1 mM DHP, selective conditions", "result": 97.5, "unit": "%"}, {"measurement": "Viability profile", "setting": "Day 0 after inoculation, selected in CD-Fusion w/o Pro + 0.2 mM DHP, non-selecting conditions", "result": 98.6, "unit": "%"}, {"measurement": "Viability profile", "setting": "Day 0 after inoculation, selected in CD-Fusion w/o Pro + 0.2 mM DHP, selective conditions", "result": 98.2, "unit": "%"}, {"measurement": "Viability profile", "setting": "Day 0 after inoculation, selected in CD-Fusion w/o Pro + 0.4 mM DHP, non-selecting conditions", "result": 96.3, "unit": "%"}, {"measurement": "Viability profile", "setting": "Day 0 after inoculation, selected in CD-Fusion w/o Pro + 0.4 mM DHP, selective conditions", "result": 99.7, "unit": "%"}, {"measurement": "Productivity profile", "setting": "Day 2 after inoculation, human IgG1, selected in CD-Fusion w/o Pro + 0.05 mM DHP, non-selecting conditions", "result": 9.8, "unit": "mg/L"}, {"measurement": "Productivity profile", "setting": "Day 2 after inoculation, human IgG1, selected in CD-Fusion w/o Pro + 0.05 mM DHP, selective conditions", "result": 47.1, "unit": "mg/L"}, {"measurement": "Productivity profile", "setting": "Day 2 after inoculation, human IgG1, selected in CD-Fusion w/o Pro + 0.1 mM DHP, non-selecting conditions", "result": 11.0, "unit": "mg/L"}, {"measurement": "Productivity profile", "setting": "Day 2 after inoculation, human IgG1, selected in CD-Fusion w/o Pro + 0.1 mM DHP, selective conditions", "result": 37.5, "unit": "mg/L"}, {"measurement": "Productivity profile", "setting": "Day 2 after inoculation, human IgG1, selected in CD-Fusion w/o Pro + 0.2 mM DHP, non-selecting conditions", "result": 11.3, "unit": "mg/L"}, {"measurement": "Productivity profile", "setting": "Day 2 after inoculation, human IgG1, selected in CD-Fusion w/o Pro + 0.2 mM DHP, selective conditions", "result": 34.4, "unit": "mg/L"}, {"measurement": "Productivity profile", "setting": "Day 2 after inoculation, human IgG1, selected in CD-Fusion w/o Pro + 0.4 mM DHP, non-selecting conditions", "result": 11.3, "unit": "mg/L"}, {"measurement": "Productivity profile", "setting": "Day 2 after inoculation, human IgG1, selected in CD-Fusion w/o Pro + 0.4 mM DHP, selective conditions", "result": 39.4, "unit": "mg/L"}, {"measurement": "Viability profile", "setting": "[1]", "result": 98.9, "unit": "%"}, {"measurement": "Viable cell density profile", "setting": "[1]", "result": "6,1E+05 VCD/ml"}, {"measurement": "Viability profile", "setting": "[2]", "result": 99.3, "unit": "%"}, {"measurement": "Viable cell density profile", "setting": "[2]", "result": "7,9E+05 VCD/ml"}, {"measurement": "Viability profile", "setting": "[3]", "result": 99.2, "unit": "%"}, {"measurement": "Viable cell density profile", "setting": "[3]", "result": "6,4E+05 VCD/ml"}, {"measurement": "Viability profile", "setting": "[4]", "result": 99.3, "unit": "%"}, {"measurement": "Viable cell density profile", "setting": "[4]", "result": "8,0E+05 VCD/ml"}, {"measurement": "Viability profile", "setting": "[5]", "result": 99.3, "unit": "%"}, {"measurement": "Viable cell density profile", "setting": "[5]", "result": "5.6E+06", "unit": "VCD/ml"}, {"measurement": "Viability profile", "setting": "[6]", "result": 99.4, "unit": "%"}, {"measurement": "Viable cell density profile", "setting": "[6]", "result": "7.4E+06", "unit": "VCD/ml"}, {"measurement": "Viability profile", "setting": "[7]", "result": 99.1, "unit": "%"}, {"measurement": "Viable cell density profile", "setting": "[7]", "result": "2.4E+06", "unit": "VCD/ml"}, {"measurement": "Viability profile", "setting": "[8]", "result": 99.3, "unit": "%"}, {"measurement": "Viable cell density profile", "setting": "[8]", "result": "5.3E+06", "unit": "VCD/ml"}, {"measurement": "Productivity profile", "setting": "Day 4 after inoculation, human IgG1, selected in CD-Fusion w/o Pro + 0.05 mM DHP, non-selecting conditions", "result": 24.2, "unit": "mg/L"}, {"measurement": "Productivity profile", "setting": "Day 4 after inoculation, human IgG1, selected in CD-Fusion w/o Pro + 0.05 mM DHP, selective conditions", "result": 114.8, "unit": "mg/L"}, {"measurement": "Productivity profile", "setting": "Day 4 after inoculation, human IgG1, selected in CD-Fusion w/o Pro + 0.1 mM DHP, non-selecting conditions", "result": 31.7, "unit": "mg/L"}, {"measurement": "Productivity profile", "setting": "Day 4 after inoculation, human IgG1, selected in CD-Fusion w/o Pro + 0.1 mM DHP, selective conditions", "result": 83.8, "unit": "mg/L"}, {"measurement": "Productivity profile", "setting": "Day 4 after inoculation, human IgG1, selected in CD-Fusion w/o Pro + 0.2 mM DHP, non-selecting conditions", "result": 34.6, "unit": "mg/L"}, {"measurement": "Productivity profile", "setting": "Day 4 after inoculation, human IgG1, selected in CD-Fusion w/o Pro + 0.2 mM DHP, selective conditions", "result": 104.8, "unit": "mg/L"}, {"measurement": "Productivity profile", "setting": "Day 4 after inoculation, human IgG1, selected in CD-Fusion w/o Pro + 0.4 mM DHP, non-selecting conditions", "result": 41.0, "unit": "mg/L"}, {"measurement": "Productivity profile", "setting": "Day 4 after inoculation, human IgG1, selected in CD-Fusion w/o Pro + 0.4 mM DHP, selective conditions", "result": 105.5, "unit": "mg/L"}, {"measurement": "Viability profile", "setting": "[9]", "result": 99.8, "unit": "%"}, {"measurement": "Viable cell density profile", "setting": "[9]", "result": "5,3E+06 VCD/ml"}, {"measurement": "Viability profile", "setting": "[10]", "result": 99.7, "unit": "%"}, {"measurement": "Viable cell density profile", "setting": "[10]", "result": "6,5E+06 VCD/ml"}, {"measurement": "Viability profile", "setting": "Day 4 after inoculation, selected in CD-Fusion w/o Pro + 0.2 mM DHP, non-selecting conditions", "result": 99.5, "unit": "%"}]}
